Literature values, collected in US20260232602A1, “DRUG DELIVERY SYSTEMS AND METHODS COMPRISING POLYSIALIC ACID AND/OR OTHER POLYMERS” (Universidade de Santiago de Compostela, priority 2017, published 2026).

Conditions: stated with the drug's Mw and supplier

Compound	Log P
CC(=O)O[C@@]12CO[C@@H]1C[C@H](O)[C@@]1(C)C(=O)[C@H](O)C3=C(C)[C@@H](OC(=O)[C@H](O)[C@@H](NC(=O)OC(C)(C)C)c4ccccc4)C[C@@](O)([C@@H](OC(=O)c4ccccc4)[C@H]21)C3(C)C [docetaxel]	2.6
C/C(=C\c1csc(C)n1)[C@@H]1C[C@@H]2O[C@]2(C)CCC[C@H](C)[C@H](O)[C@@H](C)C(=O)C(C)(C)[C@@H](O)CC(=O)O1 [patupilone]	3.7
